Measurements from patent US5292901A, “Benzodioxole derivatives” (Eisai Co., Ltd., priority 1987, dated 1994).

Columns and labels:
Type in all cases: in vivo, male Fischer (F344) rats
[1] = test system: liver injury induced by D-galactosamine; assay: Experimental Example 1d: effect on liver injury induced by D-galactosamine in rats (group I-d); settings: Rattus norvegicus, Table 1d, D-galactosamine 300 mg/kg s.c., compound 50 mg/kg oral in distilled water or 0.5% methylcellulose, 48 h
Method: (§1) 300 mg/kg of D-galactosamine was administered to male Fischer (F344) rats weighing around 180 g by subcutaneous injection to induce liver injury. Each compound was dissolved in distilled water was given by oral administration in a dose of 50 mg/kg one hour after the injection of D-galactosamine.
(§2) The D-galactosamine was used in the form of a solution having a concentration of 200 mg/ml, obtained by dissolving D-galactosamine in a physiological saline solution to obtain a dilute D-galactosamine solution and adjusting the pH of the dilute solution to 7.0 with 10N aqueous potassium hydroxide.
(§3) Blood was collected from the rat's tail vein 48 h after the injection of D-galactosamine. The blood coagulation time was determined by the hepaplastin test (HPT) and GPT activity in the blood plasma was determined by an enzymatic method.

[2] = test system: liver injury induced by D-galactosamine; assay: Experimental Example 1b: effect on liver injury induced by D-galactosamine in rats (group I-b); settings: Rattus norvegicus, po, 48 h, Table 1b, D-galactosamine 400 mg/kg; for inhibition in vivo at 100 mg/kg: compound 100 mg/kg in 0.5% methylcellulose; for inhibition in vivo at 50 mg/kg: values marked *: administration of 50 mg/kg
[3] = test system: liver injury induced by D-galactosamine; assay: Experimental Example 1e: effect on liver injury induced by D-galactosamine in rats (group I-e); settings: Rattus norvegicus, po, 48 h, Table 1e, D-galactosamine 400 mg/kg, compound 100 mg/kg in 0.5% aqueous methylcellulose
Method: The D-galactosamine was used in the form of a solution having a concentration of 200 mg/ml, obtained by dissolving D-galactosamine in a physiological saline solution to obtain a dilute D-galactosamine solution and adjusting the pH of the dilute solution to 7.0 with 10N aqueous potassium hydroxide. Blood was collected from the rat's tail vein 48 h after the injection of D-galactosamine. The blood coagulation time was determined by the […]) and GPT activity in the blood plasma was determined by an enzymatic method.

[4] = test system: liver injury induced by D-galactosamine; assay: Experimental Example 2b: inhibition of liver injury in rats (group I-b), method given as that of Experimental Example 1b; settings: Rattus norvegicus, 48 h; Table 2b; compound 100 mg/kg oral in 0.5% methylcellulose; read-out: Inhibition ratio (%) GPT
Method: The test was conducted in the same manner as shown in Experimental Example 1b except that the test compound was orally administered to the rats in a dose of 100 mg/kg in 0.5% methylcellulose solution.

[5] = test system: liver injury induced by D-galactosamine; assay: Experimental Example 1f: effect on liver injury induced by D-galactosamine in rats (group I-f); settings: Rattus norvegicus, po, 48 h, Table 1f, D-galactosamine 400 mg/kg, compound 100 mg/kg in 0.5% methylcellulose
Method: as §1, §2, §3
The test was conducted in the same way as shown in Experimental Example 1a except that 400 mg/kg of D-galactosamine was administered in its physiological saline solution and each test compound was used in an amount of 100 mg/kg in 0.5% methylcellulose liquid.

[6] = read-out: Inhibition ratio (%) GPT
[7] = read-out: Inhibition ratio (%) HPT

For `CC(=O)CS(=O)(=O)CCc1ccc2c(c1)OCO2` [Compound 34], the inhibition in vivo at 50 mg/kg [1, 6] was 37% and the inhibition in vivo at 50 mg/kg [1, 7] was 17%.
In the case of `CN(C)C(=O)CCSCCc1ccc2c(c1)OCO2` [Compound 19], the inhibition in vivo at 100 mg/kg [2, 6] is reported as 69% and the inhibition in vivo at 100 mg/kg [2, 7] is reported as 90%.
`O=C(OCCSSCCCc1ccc2c(c1)OCO2)c1cccnc1` [compound 7] was tested, and the inhibition in vivo at 100 mg/kg [3, 6] was 72% and the inhibition in vivo at 100 mg/kg [3, 7] was 43%.
Molecule `c1ccc(CCSSCCCc2ccc3c(c2)OCO3)cc1` [Compound 6, 3-(1,3-Benzodioxol-5-yl)propyl phenethyl disulfide] has an inhibition in vivo at 100 mg/kg [3, 6] of 55% and an inhibition in vivo at 100 mg/kg [3, 7] of 53%.
With `CC(Cc1ccc2c(c1)OCO2)SSCCO` (centres unmarked) [Compound 12, 2-[{2-(1,3-Benzodioxol-5-yl)-1-methylethyl}dithio]ethanol] the inhibition in vivo at 100 mg/kg [3, 6] was 63% and the inhibition in vivo at 100 mg/kg [3, 7] was 45%.
`OCCSSCCc1ccc2c(c1)OCO2` [Compound 1, 2-[{2-(1,3-Benzodioxol-5-yl)ethyl}dithio]ethanol] was tested, and the inhibition in vivo at 100 mg/kg [3, 6] was 92% and the inhibition in vivo at 100 mg/kg [3, 7] was 62%.
In the case of `NC(=O)CCSCCc1ccc2c(c1)OCO2` [Compound 17], the inhibition in vivo at 100 mg/kg [4] is reported as 98%, the inhibition in vivo at 100 mg/kg [2, 6] is reported as 97% and the inhibition in vivo at 100 mg/kg [2, 7] is reported as 99%.
With `Cc1cc2c(cc1C(C)SCC(=O)O)OCO2` (centres unmarked) [Compound 3] the inhibition in vivo at 100 mg/kg [5, 6] was 100% and the inhibition in vivo at 100 mg/kg [5, 7] was 100%.
Molecule `CS(=O)(=O)CCc1ccc2c(c1)OCO2` [Compound 28] has an inhibition in vivo at 100 mg/kg [4] of 97%, an inhibition in vivo at 100 mg/kg [2, 6] of 95% and an inhibition in vivo at 100 mg/kg [2, 7] of 98%.
`c1cc(CSCCc2ccc3c(c2)OCO3)ccn1` [Example 6, 2-(1,3-Benzodioxol-5-yl)ethyl (pyridin-4-yl)methyl sulfide] gave an inhibition in vivo at 50 mg/kg [1, 6] of 64% and an inhibition in vivo at 50 mg/kg [1, 7] of 76%.
Molecule `O=C(O)CSCCc1ccc2c(c1)OCO2` [Compound 8, Sodium [{2-(1,3-benzodioxol-5-yl)ethyl}thio]acetate] has an inhibition in vivo at 100 mg/kg [2, 6] of 97% and an inhibition in vivo at 100 mg/kg [2, 7] of 97%.
`CC(C)(SCC(=O)O)c1ccc2c(c1)OCO2` [Compound 2] showed an inhibition in vivo at 100 mg/kg [5, 6] of 76% and an inhibition in vivo at 100 mg/kg [5, 7] of 83%.
`O=C(OCCSSCc1ccc2c(c1)OCO2)c1cccnc1` [Compound 10, 2-[{(1,3-Benzodioxol-5-yl)methyl}dithio]ethyl nicotinate] showed an inhibition in vivo at 100 mg/kg [3, 6] of 72% and an inhibition in vivo at 100 mg/kg [3, 7] of 43%.
`CC(C)(SCC(N)=O)c1ccc2c(c1)OCO2` [Compound 11] was tested, and the inhibition in vivo at 100 mg/kg [5, 6] was 97% and the inhibition in vivo at 100 mg/kg [5, 7] was 68%.
`COCCSCCc1ccc2c(c1)OCO2` [Compound 6] showed an inhibition in vivo at 100 mg/kg [2, 6] of 79% and an inhibition in vivo at 100 mg/kg [2, 7] of 93%.
Molecule `Cc1cc2c(cc1CCSCC(=O)O)OCO2` [Compound 16] has an inhibition in vivo at 50 mg/kg [1, 6] of 25% and an inhibition in vivo at 50 mg/kg [1, 7] of 41%.
Work on `Cc1cc2c(cc1CSCC(=O)O)OCO2` [Compound 6] yielded an inhibition in vivo at 100 mg/kg [5, 6] of 100% and an inhibition in vivo at 100 mg/kg [5, 7] of 100%.
Molecule `O=C(O)CSCCc1ccc2c(c1)OCO2` [Compound 8] has an inhibition in vivo at 100 mg/kg [4] of 53%.
With `[O-][S+](CCO)CCc1ccc2c(c1)OCO2` (centres unmarked) [Compound 27] the inhibition in vivo at 100 mg/kg [2, 6] was 54% and the inhibition in vivo at 100 mg/kg [2, 7] was 65%.
In the case of `O=C(O)CCCCCSCCc1ccc2c(c1)OCO2` [Compound 12], the inhibition in vivo at 50 mg/kg [2, 6] is reported as 69% and the inhibition in vivo at 50 mg/kg [2, 7] is reported as 75%.
`c1ncc(CSCCc2ccc3c(c2)OCO3)[nH]1` [Compound 8] was tested, and the inhibition in vivo at 50 mg/kg [1, 6] was 28% and the inhibition in vivo at 50 mg/kg [1, 7] was 61%.
`CCC(SCC(=O)O)c1cc2c(cc1C)OCO2` (centres unmarked) [Compound 4] was tested, and the inhibition in vivo at 100 mg/kg [5, 6] was 89% and the inhibition in vivo at 100 mg/kg [5, 7] was 100%.
Work on `SCCc1ccc2c(c1)OCO2` [Compound 1, 2-(1,3-Benzodioxol-5-yl)ethanethiol] yielded an inhibition in vivo at 100 mg/kg [2, 6] of 91% and an inhibition in vivo at 100 mg/kg [2, 7] of 96%.
`CC(Cc1ccc2c(c1)OCO2)SSC(C)Cc1ccc2c(c1)OCO2` (centres unmarked) [compound 11] gave an inhibition in vivo at 100 mg/kg [3, 6] of 76% and an inhibition in vivo at 100 mg/kg [3, 7] of 68%.
Work on `N#CCS(=O)(=O)CCc1ccc2c(c1)OCO2` [Compound 37] yielded an inhibition in vivo at 50 mg/kg [1, 6] of 52% and an inhibition in vivo at 50 mg/kg [1, 7] of 44%.
Work on `CC(C)S(=O)(=O)CCc1ccc2c(c1)OCO2` [Compound 36] yielded an inhibition in vivo at 50 mg/kg [1, 6] of 59% and an inhibition in vivo at 50 mg/kg [1, 7] of 68%.
For `N#CCSCCc1ccc2c(c1)OCO2` [Example 2, [{2-(1,3-Benzodioxol-5-yl)ethyl}thio]acetonitrile], the inhibition in vivo at 50 mg/kg [1, 6] was 88% and the inhibition in vivo at 50 mg/kg [1, 7] was 100%.
With `N#CC(SCCc1ccc2c(c1)OCO2)C(=O)O` (centres unmarked) [Compound 28] the inhibition in vivo at 50 mg/kg [1, 6] was 44% and the inhibition in vivo at 50 mg/kg [1, 7] was 45%.
`OCCSCCc1ccc2c(c1)OCO2` [Compound 3] was tested, and the inhibition in vivo at 100 mg/kg [2, 6] was 97% and the inhibition in vivo at 100 mg/kg [2, 7] was 94%.
Work on `O=C(O)CNC(=O)CSCCc1ccc2c(c1)OCO2` [Compound 23] yielded an inhibition in vivo at 100 mg/kg [2, 6] of 77% and an inhibition in vivo at 100 mg/kg [2, 7] of 92%.
`CCCCCCCCCSSCCCc1ccc2c(c1)OCO2` [Compound 9, 3-(1,3-Benzodioxol-5-yl)propyl nonyl disulfide] gave an inhibition in vivo at 100 mg/kg [3, 6] of 53% and an inhibition in vivo at 100 mg/kg [3, 7] of 49%.
`CC(C)(SCCc1ccc2c(c1)OCO2)C(=O)O` [Example 4, Sodium 2-methyl-2-[{2-(1,3-benzodioxol-5-yl)ethyl}thio]propionate] showed an inhibition in vivo at 50 mg/kg [1, 6] of 84% and an inhibition in vivo at 50 mg/kg [1, 7] of 91%.
`CC1Oc2ccc(CCSCC(=O)O)cc2O1` (centres unmarked) [Example 12, Sodium [{2-(2-methyl-1,3-benzodioxol-5-yl)ethyl}-thio]acetate] was tested, and the inhibition in vivo at 50 mg/kg [1, 6] was 85% and the inhibition in vivo at 50 mg/kg [1, 7] was 85%.
With `CCS(=O)(=O)CCc1ccc2c(c1)OCO2` [Compound 35] the inhibition in vivo at 50 mg/kg [1, 6] was 76% and the inhibition in vivo at 50 mg/kg [1, 7] was 60%.
For `N#CC[S+]([O-])CCc1ccc2c(c1)OCO2` (centres unmarked) [Compound 33], the inhibition in vivo at 50 mg/kg [1, 6] was 82% and the inhibition in vivo at 50 mg/kg [1, 7] was 78%.
`c1ccc(CSCCc2ccc3c(c2)OCO3)nc1` [Example 7, 2-(1,3-Benzodioxol-5-yl)ethyl (pyridin-2-yl)methyl sulfide] gave an inhibition in vivo at 50 mg/kg [1, 6] of 37% and an inhibition in vivo at 50 mg/kg [1, 7] of 58%.
With `CC(=O)CSCCc1ccc2c(c1)OCO2` [Example 1, [{2-(1,3-Benzodioxol-5-yl)ethyl}thio]propan-2-one] the inhibition in vivo at 50 mg/kg [1, 6] was 89% and the inhibition in vivo at 50 mg/kg [1, 7] was 100%.
`CCCC(SCC(=O)NCC(=O)O)c1ccc2c(c1)OCO2` (centres unmarked) [Compound 17] was tested, and the inhibition in vivo at 100 mg/kg [5, 6] was 91% and the inhibition in vivo at 100 mg/kg [5, 7] was 70%.
Work on `Cc1cc2c(cc1C(C)SCC(N)=O)OCO2` (centres unmarked) [Compound 13] yielded an inhibition in vivo at 100 mg/kg [5, 6] of 50% and an inhibition in vivo at 100 mg/kg [5, 7] of 17%.
`CCC(Cc1ccc2c(c1)OCO2)SCC(=O)O` (centres unmarked) [Example 26, Sodium [[1-{(1,3-benzodioxol-5-yl)methyl}propyl]thio]acetate] gave an inhibition in vivo at 50 mg/kg [1, 6] of 53% and an inhibition in vivo at 50 mg/kg [1, 7] of 48%.
Molecule `c1cc2c(cc1CCSSCCc1ccc3c(c1)OCO3)OCO2` [Compound 2, Bis{2-(1,3-benzodioxol-5-yl)ethyl}disulfide] has an inhibition in vivo at 100 mg/kg [3, 6] of 64% and an inhibition in vivo at 100 mg/kg [3, 7] of 57%.
`CCCC(SCC(=O)O)c1ccc2c(c1)OCO2` (centres unmarked) [Compound 1] gave an inhibition in vivo at 100 mg/kg [5, 6] of 84% and an inhibition in vivo at 100 mg/kg [5, 7] of 100%.
For `CC(C)c1cc2c(cc1CCSCC(=O)O)OCO2` [Compound 9], the inhibition in vivo at 100 mg/kg [5, 6] was 88% and the inhibition in vivo at 100 mg/kg [5, 7] was 67%.
In the case of `O=C(OCCSSCCc1ccc2c(c1)OCO2)c1cccnc1` [Compound 3, 2-[{2-(1,3-Benzodioxol-5-yl)ethyl}dithio]ethyl nicotinate], the inhibition in vivo at 100 mg/kg [3, 6] is reported as 92% and the inhibition in vivo at 100 mg/kg [3, 7] is reported as 62%.
